A short description of this series: activity coefficient (dimensionless); of the first substance listed, at infinite dilution; xn = mol fraction of the nth substance listed. Particulars: Liquid, Chromatography, x1 = 0.

Numbers after ± are expanded uncertainties.

Consider `CCO` [ethanol] + CCCCCCCCCC[N+](C)(C)C.O=S(=O)([N-]S(=O)(=O)C(F)(F)F)C(F)(F)F, for which the activity coefficient by setting is: (322.85 K) 1.29 ± 0.04; (332.65 K) 1.19 ± 0.04; (343.15 K) 1.07 ± 0.03.
For `C=O` [methanal] + CCCCCCCCCC[N+](C)(C)C.O=S(=O)([N-]S(=O)(=O)C(F)(F)F)C(F)(F)F the same measures were 0.09 ± 0.04, 0.1 ± 0.04 and 0.11 ± 0.04.
For `CC1CCCCC1` [methylcyclohexane] + CCCCCCCC[N+](CCCCCCCC)(CCCCCCCC)CCCCCCCC.O=S(=O)([N-]S(=O)(=O)C(F)(F)F)C(F)(F)F the same measures were 1.07 ± 0.03, 1.06 ± 0.03 and 1.05 ± 0.03.
For `CCOCC` [diethyl ether] + CCCC[N+](C)(CCCC)CCCC.O=S(=O)([N-]S(=O)(=O)C(F)(F)F)C(F)(F)F the same measures were 1.65 ± 0.07, 1.67 ± 0.07 and 1.65 ± 0.07.
With `c1ccccc1` [benzene] + CCCC[N+](C)(CCCC)CCCC.O=S(=O)([N-]S(=O)(=O)C(F)(F)F)C(F)(F)F, the activity coefficient reads like this: (322.85 K) 0.9 ± 0.03; (332.65 K) 0.93 ± 0.03; (343.15 K) 0.92 ± 0.03.
For `Cc1cccc(C)c1` [1,3-dimethylbenzene] + CCCCCCCC[N+](C)(C)C.O=S(=O)([N-]S(=O)(=O)C(F)(F)F)C(F)(F)F the same measures were 1.39 ± 0.05, 1.39 ± 0.05 and 1.38 ± 0.05.
For `ClCCl` [dichloromethane] + CCCCCCCC[N+](CCCCCCCC)(CCCCCCCC)CCCCCCCC.O=S(=O)([N-]S(=O)(=O)C(F)(F)F)C(F)(F)F the same measures were 0.29 ± 0.04, 0.3 ± 0.04 and 0.31 ± 0.04.
For `c1ccncc1` [pyridine] + CCCCCCCC[N+](CCCCCCCC)(CCCCCCCC)CCCCCCCC.O=S(=O)([N-]S(=O)(=O)C(F)(F)F)C(F)(F)F the same measures were 0.33 ± 0.04, 0.33 ± 0.04 and 0.34 ± 0.04.
With `CC(C)CO` [2-methyl-1-propanol] + CCCC[N+](C)(CCCC)CCCC.O=S(=O)([N-]S(=O)(=O)C(F)(F)F)C(F)(F)F, the activity coefficient is 1.97 ± 0.09 (322.85 K), 1.82 ± 0.08 (332.65 K) and 1.64 ± 0.07 (343.15 K).
For `C#CCCCC` [1-hexyne] + CCCCCCCC[N+](CCCCCCCC)(CCCCCCCC)CCCCCCCC.O=S(=O)([N-]S(=O)(=O)C(F)(F)F)C(F)(F)F the same measures were 0.75 ± 0.03, 0.76 ± 0.03 and 0.76 ± 0.03.
For `c1ccncc1` [pyridine] + CCCC[N+](C)(CCCC)CCCC.O=S(=O)([N-]S(=O)(=O)C(F)(F)F)C(F)(F)F the same measures were 0.55 ± 0.03, 0.56 ± 0.03 and 0.56 ± 0.03.
For `Cc1ccc(C)cc1` [1,4-dimethylbenzene] + CCCCCCCCCC[N+](C)(C)C.O=S(=O)([N-]S(=O)(=O)C(F)(F)F)C(F)(F)F the same measures were 1.12 ± 0.03, 1.15 ± 0.04 and 1.13 ± 0.03.
In the case of `CC(C)OC(C)C` [diisopropyl ether] + CCCCCCCC[N+](CCCCCCCC)(CCCCCCCC)CCCCCCCC.O=S(=O)([N-]S(=O)(=O)C(F)(F)F)C(F)(F)F, the activity coefficient (322.85 K) is 1.08 ± 0.03, the activity coefficient (332.65 K) worked out at 1.08 ± 0.03 and the activity coefficient (343.15 K) was 1.08 ± 0.03.
Consider `CC(C)O` [propan-2-ol] + CCCCCCCCCC[N+](C)(C)C.O=S(=O)([N-]S(=O)(=O)C(F)(F)F)C(F)(F)F, for which the activity coefficient (322.85 K) turned out to be 1.38 ± 0.05, the activity coefficient (332.65 K) was found to be 1.28 ± 0.04 and the activity coefficient (343.15 K) was 1.15 ± 0.04.
Take `CCCCCCCCCCC` [undecane] + CCCCCCCCCC[N+](C)(C)C.O=S(=O)([N-]S(=O)(=O)C(F)(F)F)C(F)(F)F: the activity coefficient reads like this: (322.85 K) 12.4 ± 0.57; (332.65 K) 12.2 ± 0.56; (343.15 K) 11.4 ± 0.52.
For `CC(C)O` [propan-2-ol] + CCCCCCCC[N+](CCCCCCCC)(CCCCCCCC)CCCCCCCC.O=S(=O)([N-]S(=O)(=O)C(F)(F)F)C(F)(F)F the same measures were 1.21 ± 0.04, 1.13 ± 0.03 and 1.05 ± 0.03.

The values above are taken from the NIST ThermoML archive (doi:10.1021/je200637v).
